From patent publication EP0238198A2, “Method of modifying the lipid structure function and expression of cell membranes and pharmaceutical compositions for use therein” (Habib, Nagy Adly, priority 1986, dated 1987)
Like-named read-outs stand apart in the source and are kept apart here.

System: type 2 herpes simplex virus (HSV)
Test: HSV2 replication in human embryonic lung fibroblasts (virus yield)
Type: cell-based, HSV type 2
Conditions: for inhibition at 75 µM / inhibition at 25 µM / inhibition at 50 µM / inhibition at 100 µM: Human alphaherpesvirus 2, Fibroblast, 28 h
Procedure: Stearic and iodinated stearic acids were assayed for their inhibitory effects on the replication of type 2 herpes simplex virus (HSV) in sub-confluent monolayer cultures of human embryonic lung fibroblasts. […] This was accomplished by reacting hydriodic acid with oleic acid in acetic acid at 20°C. Excess iodine was removed at the end of the reaction by the addition of an excess of sodium thiosulphate, and the product fatty acid was extracted into hexane.
Bovine serum albumin conjugates of the fatty acids (prepared according to the method of A.A.Spector and-J.C.Hoak, J.Anal.Biochem. 1969, 32, 297-302) were added to the cell culture medium at various concentrations in the range 25 - 100 micromolar final concentration and at various times before and after (from 0 to 12 hours) infection with partially purified clinical isolates of HSV type 2, at a multiplicity of infection of 0.1 plaque forming units/cell.
28 hours after infection the titre of infectious virus in the culture supernatants was determined by standard infectious centre techniques on fresh human embryonic lung fibroblasts.

## CCCCCCCCCCCCCCCCCC(=O)O [stearic acid, octadecanoic acid]
75 micromolar in the culture medium, cells treated for 3-4 hours before infection, read-out: maximum anti-viral activity (reduction in virus yield)
  inhibition at 75 µM: 48%
Stearic acid 25 µM, time relative to infection 0 hours, read-out: % reduction in virus yield compared with control cultures
  inhibition at 25 µM: 0%
Stearic acid 25 µM, time relative to infection 1 hours, read-out: % reduction in virus yield compared with control cultures
  inhibition at 25 µM: 5%
Stearic acid 25 µM, time relative to infection 2 hours, read-out: % reduction in virus yield compared with control cultures
  inhibition at 25 µM: 0%
Stearic acid 25 µM, time relative to infection 3 hours, read-out: % reduction in virus yield compared with control cultures
  inhibition at 25 µM: 10%
Stearic acid 25 µM, time relative to infection 4 hours, read-out: % reduction in virus yield compared with control cultures
  inhibition at 25 µM: 1%
Stearic acid 25 µM, time relative to infection 8 hours, read-out: % reduction in virus yield compared with control cultures
  inhibition at 25 µM: 0%
Stearic acid 25 µM, time relative to infection 12 hours, read-out: % reduction in virus yield compared with control cultures
  inhibition at 25 µM: 3%
Stearic acid 25 µM, time relative to infection -1 hours, read-out: % reduction in virus yield compared with control cultures
  inhibition at 25 µM: 6%
Stearic acid 25 µM, time relative to infection -2 hours, read-out: % reduction in virus yield compared with control cultures
  inhibition at 25 µM: 14%
Stearic acid 25 µM, time relative to infection -3 hours, read-out: % reduction in virus yield compared with control cultures
  inhibition at 25 µM: 4%
Stearic acid 25 µM, time relative to infection -4 hours, read-out: % reduction in virus yield compared with control cultures
  inhibition at 25 µM: 2%
Stearic acid 25 µM, time relative to infection -8 hours, read-out: % reduction in virus yield compared with control cultures
  inhibition at 25 µM: 10%
Stearic acid 25 µM, time relative to infection -12 hours, read-out: % reduction in virus yield compared with control cultures
  inhibition at 25 µM: 0%
Stearic acid 50 µM, time relative to infection 0 hours, read-out: % reduction in virus yield compared with control cultures
  inhibition at 50 µM: 7%
Stearic acid 50 µM, time relative to infection 1 hours, read-out: % reduction in virus yield compared with control cultures
  inhibition at 50 µM: 8%
Stearic acid 50 µM, time relative to infection 2 hours, read-out: % reduction in virus yield compared with control cultures
  inhibition at 50 µM: 0%
Stearic acid 50 µM, time relative to infection 3 hours, read-out: % reduction in virus yield compared with control cultures
  inhibition at 50 µM: 10%
Stearic acid 50 µM, time relative to infection 4 hours, read-out: % reduction in virus yield compared with control cultures
  inhibition at 50 µM: 0%
Stearic acid 50 µM, time relative to infection 8 hours, read-out: % reduction in virus yield compared with control cultures
  inhibition at 50 µM: 5%
Stearic acid 50 µM, time relative to infection 12 hours, read-out: % reduction in virus yield compared with control cultures
  inhibition at 50 µM: 9%
Stearic acid 50 µM, time relative to infection -1 hours, read-out: % reduction in virus yield compared with control cultures
  inhibition at 50 µM: 27%
Stearic acid 50 µM, time relative to infection -2 hours, read-out: % reduction in virus yield compared with control cultures
  inhibition at 50 µM: 30%
Stearic acid 50 µM, time relative to infection -3 hours, read-out: % reduction in virus yield compared with control cultures
  inhibition at 50 µM: 27%
Stearic acid 50 µM, time relative to infection -4 hours, read-out: % reduction in virus yield compared with control cultures
  inhibition at 50 µM: 8%
Stearic acid 50 µM, time relative to infection -8 hours, read-out: % reduction in virus yield compared with control cultures
  inhibition at 50 µM: 0%
Stearic acid 50 µM, time relative to infection -12 hours, read-out: % reduction in virus yield compared with control cultures
  inhibition at 50 µM: 0%
Stearic acid 75 µM, time relative to infection 0 hours, read-out: % reduction in virus yield compared with control cultures
  inhibition at 75 µM: 18%
Stearic acid 75 µM, time relative to infection 1 hours, read-out: % reduction in virus yield compared with control cultures
  inhibition at 75 µM: 0%
Stearic acid 75 µM, time relative to infection 2 hours, read-out: % reduction in virus yield compared with control cultures
  inhibition at 75 µM: 9%
Stearic acid 75 µM, time relative to infection 3 hours, read-out: % reduction in virus yield compared with control cultures
  inhibition at 75 µM: 0%
Stearic acid 75 µM, time relative to infection 4 hours, read-out: % reduction in virus yield compared with control cultures
  inhibition at 75 µM: 3%
Stearic acid 75 µM, time relative to infection 8 hours, read-out: % reduction in virus yield compared with control cultures
  inhibition at 75 µM: 10%
Stearic acid 75 µM, time relative to infection 12 hours, read-out: % reduction in virus yield compared with control cultures
  inhibition at 75 µM: 5%
Stearic acid 75 µM, time relative to infection -1 hours, read-out: % reduction in virus yield compared with control cultures
  inhibition at 75 µM: 41%
Stearic acid 75 µM, time relative to infection -2 hours, read-out: % reduction in virus yield compared with control cultures
  inhibition at 75 µM: 38%
Stearic acid 75 µM, time relative to infection -3 hours, read-out: % reduction in virus yield compared with control cultures
  inhibition at 75 µM: 47%
Stearic acid 75 µM, time relative to infection -4 hours, read-out: % reduction in virus yield compared with control cultures
  inhibition at 75 µM: 48%
Stearic acid 75 µM, time relative to infection -8 hours, read-out: % reduction in virus yield compared with control cultures
  inhibition at 75 µM: 3%
Stearic acid 75 µM, time relative to infection -12 hours, read-out: % reduction in virus yield compared with control cultures
  inhibition at 75 µM: 8%
Stearic acid 100 µM, time relative to infection 0 hours, read-out: % reduction in virus yield compared with control cultures
  inhibition at 100 µM: 11%
Stearic acid 100 µM, time relative to infection 1 hours, read-out: % reduction in virus yield compared with control cultures
  inhibition at 100 µM: 14%
Stearic acid 100 µM, time relative to infection 2 hours, read-out: % reduction in virus yield compared with control cultures
  inhibition at 100 µM: 8%
Stearic acid 100 µM, time relative to infection 3 hours, read-out: % reduction in virus yield compared with control cultures
  inhibition at 100 µM: 11%
Stearic acid 100 µM, time relative to infection 4 hours, read-out: % reduction in virus yield compared with control cultures
  inhibition at 100 µM: 0%
Stearic acid 100 µM, time relative to infection 8 hours, read-out: % reduction in virus yield compared with control cultures
  inhibition at 100 µM: 7%
Stearic acid 100 µM, time relative to infection 12 hours, read-out: % reduction in virus yield compared with control cultures
  inhibition at 100 µM: 1%
Stearic acid 100 µM, time relative to infection -1 hours, read-out: % reduction in virus yield compared with control cultures
  inhibition at 100 µM: 30%
Stearic acid 100 µM, time relative to infection -2 hours, read-out: % reduction in virus yield compared with control cultures
  inhibition at 100 µM: 36%
Stearic acid 100 µM, time relative to infection -3 hours, read-out: % reduction in virus yield compared with control cultures
  inhibition at 100 µM: 35%
Stearic acid 100 µM, time relative to infection -4 hours, read-out: % reduction in virus yield compared with control cultures
  inhibition at 100 µM: 20%
Stearic acid 100 µM, time relative to infection -8 hours, read-out: % reduction in virus yield compared with control cultures
  inhibition at 100 µM: 0%
Stearic acid 100 µM, time relative to infection -12 hours, read-out: % reduction in virus yield compared with control cultures
  inhibition at 100 µM: 0%
Stearic acid 25 µM, time relative to infection 1 hours
  virus yield: 4.11 x 10^-3 / pfu ml^-1
Stearic acid 25 µM, time relative to infection 2 hours
  virus yield: 4.31 x 10^-3 / pfu ml^-1
Stearic acid 25 µM, time relative to infection 3 hours
  virus yield: 3.89 x 10^-3 / pfu ml^-1
Stearic acid 25 µM, time relative to infection 4 hours
  virus yield: 4.26 x 10^-3 / pfu ml^-1
Stearic acid 25 µM, time relative to infection 8 hours
  virus yield: 4.41 x 10^-3 / pfu ml^-1
Stearic acid 25 µM, time relative to infection 12 hours
  virus yield: 4.21 x 10^-3 / pfu ml^-1
Stearic acid 25 µM, time relative to infection -1 hours
  virus yield: 4.06 x 10^-3 / pfu ml^-1
Stearic acid 25 µM, time relative to infection -2 hours
  virus yield: 3.72 x 10^-3 / pfu ml^-1
Stearic acid 25 µM, time relative to infection -3 hours
  virus yield: 4.15 x 10^-3 / pfu ml^-1
Stearic acid 25 µM, time relative to infection -4 hours
  virus yield: 4.25 x 10^-3 / pfu ml^-1
Stearic acid 25 µM, time relative to infection -8 hours
  virus yield: 3.88 x 10^-3 / pfu ml^-1
Stearic acid 25 µM, time relative to infection -12 hours
  virus yield: 4.63 x 10^-3 / pfu ml^-1
Stearic acid 50 µM, time relative to infection 0 hours
  virus yield: 4.00 x 10^-3 / pfu ml^-1
Stearic acid 50 µM, time relative to infection 1 hours
  virus yield: 3.96 x 10^-3 / pfu ml^-1
Stearic acid 50 µM, time relative to infection 2 hours
  virus yield: 4.45 x 10^-3 / pfu ml^-1
Stearic acid 50 µM, time relative to infection 3 hours
  virus yield: 3.88 x 10^-3 / pfu ml^-1
Stearic acid 50 µM, time relative to infection 4 hours
  virus yield: 4.36 x 10^-3 / pfu ml^-1
Stearic acid 50 µM, time relative to infection 8 hours
  virus yield: 4.09 x 10^-3 / pfu ml^-1
Stearic acid 50 µM, time relative to infection 12 hours
  virus yield: 3.92 x 10^-3 / pfu ml^-1
Stearic acid 50 µM, time relative to infection -1 hours
  virus yield: 3.14 x 10^-3 / pfu ml^-1
Stearic acid 50 µM, time relative to infection -2 hours
  virus yield: 3.02 x 10^-3 / pfu ml^-1
Stearic acid 50 µM, time relative to infection -3 hours
  virus yield: 3.15 x 10^-3 / pfu ml^-1
Stearic acid 50 µM, time relative to infection -4 hours
  virus yield: 3.98 x 10^-3 / pfu ml^-1
Stearic acid 50 µM, time relative to infection -8 hours
  virus yield: 4.62 x 10^-3 / pfu ml^-1
Stearic acid 50 µM, time relative to infection -12 hours
  virus yield: 4.75 x 10^-3 / pfu ml^-1
Stearic acid 75 µM, time relative to infection 0 hours
  virus yield: 3.55 x 10^-3 / pfu ml^-1
Stearic acid 75 µM, time relative to infection 1 hours
  virus yield: 4.44 x 10^-3 / pfu ml^-1
Stearic acid 75 µM, time relative to infection 2 hours
  virus yield: 3.92 x 10^-3 / pfu ml^-1
Stearic acid 75 µM, time relative to infection 3 hours
  virus yield: 4.53 x 10^-3 / pfu ml^-1
Stearic acid 75 µM, time relative to infection 4 hours
  virus yield: 4.21 x 10^-3 / pfu ml^-1
Stearic acid 75 µM, time relative to infection 8 hours
  virus yield: 3.87 x 10^-3 / pfu ml^-1
Stearic acid 75 µM, time relative to infection 12 hours
  virus yield: 4.11 x 10^-3 / pfu ml^-1
Stearic acid 75 µM, time relative to infection -1 hours
  virus yield: 2.54 x 10^-3 / pfu ml^-1
Stearic acid 75 µM, time relative to infection -2 hours
  virus yield: 2.69 x 10^-3 / pfu ml^-1
Stearic acid 75 µM, time relative to infection -3 hours
  virus yield: 2.31 x 10^-3 / pfu ml^-1
Stearic acid 75 µM, time relative to infection -4 hours
  virus yield: 2.25 x 10^-3 / pfu ml^-1
Stearic acid 75 µM, time relative to infection -8 hours
  virus yield: 4.18 x 10^-3 / pfu ml^-1
Stearic acid 75 µM, time relative to infection -12 hours
  virus yield: 3.96 x 10^-3 / pfu ml^-1
Stearic acid 100 µM, time relative to infection 0 hours
  virus yield: 3.85 x 10^-3 / pfu ml^-1
Stearic acid 100 µM, time relative to infection 1 hours
  virus yield: 3.71 x 10^-3 / pfu ml^-1
Stearic acid 100 µM, time relative to infection 2 hours
  virus yield: 3.96 x 10^-3 / pfu ml^-1
Stearic acid 100 µM, time relative to infection 3 hours
  virus yield: 3.83 x 10^-3 / pfu ml^-1
Stearic acid 100 µM, time relative to infection 4 hours
  virus yield: 4.52 x 10^-3 / pfu ml^-1
Stearic acid 100 µM, time relative to infection 8 hours
  virus yield: 4.03 x 10^-3 / pfu ml^-1
Stearic acid 100 µM, time relative to infection 12 hours
  virus yield: 4.28 x 10^-3 / pfu ml^-1
Stearic acid 100 µM, time relative to infection -1 hours
  virus yield: 3.04 x 10^-3 / pfu ml^-1
Stearic acid 100 µM, time relative to infection -2 hours
  virus yield: 2.77 x 10^-3 / pfu ml^-1
Stearic acid 100 µM, time relative to infection -3 hours
  virus yield: 2.80 x 10^-3 / pfu ml^-1
Stearic acid 100 µM, time relative to infection -4 hours
  virus yield: 3.45 x 10^-3 / pfu ml^-1
Stearic acid 100 µM, time relative to infection -8 hours
  virus yield: 4.33 x 10^-3 / pfu ml^-1
Stearic acid 100 µM, time relative to infection -12 hours
  virus yield: 4.72 x 10^-3 / pfu ml^-1
